Measurements as given in a melting point compilation (Tetko et al.; mined from patent text by program, amines drawn as free bases though some values may be those of a salt).

melting point	SMILES
58 to 59 °C	Cc1cc(OCc2ccccc2)c(C)cc1CO
157 °C	CN1CCC(Nc2ncc3ncnc(Nc4ccc(Oc5ccccc5)cc4)c3n2)CC1
179 to 180 °C	COc1ccc(C2CC(=O)N(c3ccncc3)C2=O)cc1 (centres undefined)
135 °C	Cc1ccc(CCN2CCN(c3noc4ccccc34)CC2)c2c1C(C)(C)CCN2
255 to 257 °C	O=C(O)c1oc2cc(O)ccc2c(=O)c1C(=O)O
142 to 143 °C	Cc1nc2c(O)c(CC[C@@H](O)c3ccccc3)c(C(=O)N(C)C)cc2n1COCC[Si](C)(C)C
279 to 280 °C	N#Cc1c(C(N)=O)c2n(c1C1CC1)CCN(C(=O)Nc1ccc(C(=O)O)cc1)C2
58 to 59 °C	CCCc1c(OCCCCCOc2cc(OCCCC(=O)OC)ccc2CCC(=O)OC)ccc2c1OCCC2=O
172 to 174 °C	CC(C)(C)OC(=O)Nc1ccc(O)c2ccccc12
148 °C	CN(C(=O)c1ccccc1OCC(=O)O)c1ccccc1
228 to 230 °C	O=C(O)Cc1cccc(NC(=O)NC2C(=O)N(CC(=O)N3CCCC3)c3ccccc3N(CC(=O)N3CCCC3)C2=O)c1
130 to 131 °C	CCN1C(=O)C(C)(C)C(=O)N(C)c2cc(CN(CCN3C(=O)CCc4ccccc43)Cc3cccnc3C)ccc21
206 to 209 °C	Oc1ccc(N2CCN(Cc3nc4ccccc4[nH]3)CC2)cc1
62 to 64 °C	c1ccc(COc2ccc(N3CCN(Cc4nc5ccccc5[nH]4)CC3)nc2)cc1
108 to 111 °C	CCCc1ccc(OC(C)=O)c(C2(OC(C)=O)C(=O)c3ccccc3C2=O)c1
214 °C	CCN1CCN(CCN2CC[C@H](NC(=O)c3cc(Cl)c(N)cc3OC)[C@H](OC(=O)N3CCCC3)C2)C1=O (relative stereo)
257 to 258 °C	CC1CCC(=NNc2ccc([N+](=O)[O-])cc2[N+](=O)[O-])c2ncc(C(=O)O)c(=O)n21 (centres undefined)
66 to 68 °C	COCCNCc1ccccc1Oc1ccc(-c2cn(C3CCOC3)c3ncnc(N)c23)cc1 (centres undefined)
281 to 282 °C	O=C(c1ccc(-c2nc(C(=O)O)co2)cc1)c1cccnc1
231 to 234 °C	Cc1c(CNCc2ccccc2)[nH]c(=O)c2c1ccc1nc(Nc3c(Cl)cccc3Cl)n(C)c12
137 to 138 °C	Cc1cccc(-c2cc(O)c(SCc3ccccc3)c(=O)o2)c1
160 to 161 °C	COc1cccc(C(=O)NCC(=O)N2c3ccccc3N(Cc3ccccc3)C(=O)[C@H]3CCC[C@H]32)c1 (relative stereo)
159 to 160 °C	CCN1C(=O)C(C)(C)C(=O)N(C)c2cc(CN(CCn3c(=O)ccc4ccccc43)Cc3ccc(C)nc3C)ccc21

Second part, the compound before the results:

SMILES	melting point
CCOC(=O)c1cc(CCc2cc3c(s2)-n2c(C)nnc2CN=C3c2ccccc2Cl)ccc1CC(=O)O	128 to 132 °C
COc1ccc(C2C=C3CCN(C)CC3C(CO)C2CO)cc1 (centres undefined)	169 to 171 °C
CCCc1nnc2n1-c1ccccc1CS2	114 °C
N#CC(C#N)=C(NCC(=O)O)Nc1cc(Cl)cc(Cl)c1	103 °C
COc1cc2c(cc1OCc1ccccc1)ncc1c(N)nc(-n3ccnc3)cc12	140 °C
CCOC(=O)COc1cc2cc(C(C)O)sc2c(Cl)c1Cl (centres undefined)	101 to 103 °C
Cc1c(Cl)ccc(C(=O)O)c1Cl	173 to 175 °C
OC1CSC(Oc2ccc(-c3cccnc3)nc2Cl)C(O)C1O (centres undefined)	180 °C
Cc1cc(COc2ccc(Oc3ccc(Cl)cc3)cc2)n(O)c(=O)c1	168 to 170 °C
COc1cc2nc(N3CCN(C(=O)C=Cc4cc(OC)c(OC)c(OC)c4)CC3)nc(N)c2cc1OC	141 to 146 °C
Clc1cccc(Cl)c1NCC1CC1	149 to 158 °C
CCOC(=O)Nc1cc(N(C)C)nc2nc(=O)on12	230 to 240 °C
Nc1cc(F)cc2cc(C(=O)NCC(F)(F)C(F)(F)C(F)(F)F)cnc12	202 to 204 °C
COc1ccc2c(c1)C(CC#N)CN(C(=O)OC(C)(C)C)C2 (centres undefined)	75 to 77 °C
CN1CC(CN2CC(=O)NC2=O)CC2c3cccc4c3c(cn4C)CC21 (centres undefined)	292 to 294 °C
CC(=O)c1ccc2nc(-n3ccnc3)nc(NCCOCCO)c2c1	164 to 166 °C
CC(C)(Oc1ccccc1S(C)(=O)=O)C(=O)O	114 to 116 °C
COc1cccc(C(=O)c2ccc(F)cc2F)c1	50 to 52 °C
CC(C)c1ccc(C(=O)C2=C(O)C(=O)N(c3ncc(S(=O)(=O)c4ccc([N+](=O)[O-])cc4)s3)C2c2ccc(OC(F)(F)F)cc2)cc1 (centres undefined)	276 to 278 °C
CC(N)C1CCC(C(=O)Nc2ccncc2)CC1 (centres undefined)	286 to 287 °C
OC[C@]1(c2ccccc2)O[C@H]1c1ccccc1	88 to 89 °C
C=CCN1CCC(Nc2ccc(Cl)cc2)CC1	90 °C
COc1c(OCC(F)(F)C(F)(F)F)ccnc1CSc1nc2ccccc2[nH]1	116 to 117 °C
c1ccc(-n2c(Cn3ccnc3)nc3ccccc32)cc1	116 to 117 °C
OC(Cn1cncn1)(Cn1cnc(C=Cc2ccc(OC(F)(F)F)cc2)n1)c1ccc(F)cc1F (centres undefined)	149 to 151 °C
CN(C)S(=O)(=O)c1ccc2c(c1)CCC2=O	142 °C
